Experiments:
[1] = target: T1, Lyn kinase (Homo sapiens, UniProt P07948); test: Lyn Kinase Assay; type: biochemical; settings: test concentration of 2 μM; read-out: Lyn percent inhibition
T1 construct: purchased Upstate Biotechnology, Lake Placid, N.Y
Procedure: A mixture of a 10× kinase buffer (500 mM MOPS at pH 7.5, 1 mM EGTA, 1 mM Sodium Vanadate, 1% β-mercaptoethanol and 100 mM Magnesium Acetate), ATP (5 μM final from a 10 mM stock), polyGluTyr (0.1 mg/mL final from a 1 mg/mL stock), γ-^33P ATP (10 μCi/μL stock) and water (20 μL/well) was added to each well of a Streptavidin Flashplate.
Test compound in 100% DMSO (0.5 μL) was added to the appropriate wells. Diluted Lyn kinase (human) (Upstate Biotechnology, Lake Placid, N.Y.) (diluted in a buffer consisting of 50 mM Tris at pH 7.5, 0.1 mM EGTA, Sodium Vanadate (0.1 mM), β-mercaptoethanol (0.1%) and 1 mg/mL bovine serum albumin) (2.5 μL) was added to the wells to initiate the reactions.
The reaction plates were incubated at 30° C. for 40 min. The reaction was terminated by the addition of a 3% phosphoric acid solution (5 μL). The reaction product (10 μL) was spotted onto a P30 filtermat and washed for 5 minutes in phosphoric acid (75 mM). The wash sequence was repeated two more times, followed with one final wash in methanol. The plates were then dried, sealed and read on the TopCount scintillation counter after adding 30 μL scintillation fluid.
Percent inhibition was derived according to the procedure described in Example 2. For those compounds without an IC50, the percent inhibition results are shown at a test concentration of 2 μM.

[2] = target: T2, Aurora-A (Mus musculus, UniProt P97477); test: Aurora-A Screening Assay; type: biochemical, murine
T2 construct: followed by the full length protein encoding the murine Aurora-A; polyhistidine (N); made in house; host or cells: sf9 insect cells
T2 sequence (P97477 1-395): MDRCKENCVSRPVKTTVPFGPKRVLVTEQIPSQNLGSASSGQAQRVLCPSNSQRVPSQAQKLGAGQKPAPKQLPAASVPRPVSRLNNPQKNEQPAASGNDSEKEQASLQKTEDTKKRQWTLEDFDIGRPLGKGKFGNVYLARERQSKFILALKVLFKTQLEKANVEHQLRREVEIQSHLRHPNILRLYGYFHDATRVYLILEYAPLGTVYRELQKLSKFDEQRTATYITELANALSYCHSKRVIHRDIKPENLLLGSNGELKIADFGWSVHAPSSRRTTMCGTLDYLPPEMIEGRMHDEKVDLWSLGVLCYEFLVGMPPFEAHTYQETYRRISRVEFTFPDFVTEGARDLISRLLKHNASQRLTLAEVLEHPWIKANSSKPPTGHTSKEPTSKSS

[3] = target: T3, HER-2 (Homo sapiens, UniProt P04626); test: HER-2 Kinase Assay; type: biochemical
T3 construct: the nucleotides encoding amino acids 679 to 1255 of HER-2; purchased Proqinase (Freiburg, Germany)
How it was run: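 GST-HIS6-thrombin fusion of HER-2 residues 679–1255, assayed with biotinylated polyGluTyr, 1 μM ATP plus γ-33P-ATP, Mg2+, Mn2+ and vanadate in Hepes pH 7.5 for 1 h at 30 °C. Incorporation read by streptavidin Flashplate scintillation counting; IC50 values, or % inhibition at 1 μM.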

T1 sequence (P07948 whole entry): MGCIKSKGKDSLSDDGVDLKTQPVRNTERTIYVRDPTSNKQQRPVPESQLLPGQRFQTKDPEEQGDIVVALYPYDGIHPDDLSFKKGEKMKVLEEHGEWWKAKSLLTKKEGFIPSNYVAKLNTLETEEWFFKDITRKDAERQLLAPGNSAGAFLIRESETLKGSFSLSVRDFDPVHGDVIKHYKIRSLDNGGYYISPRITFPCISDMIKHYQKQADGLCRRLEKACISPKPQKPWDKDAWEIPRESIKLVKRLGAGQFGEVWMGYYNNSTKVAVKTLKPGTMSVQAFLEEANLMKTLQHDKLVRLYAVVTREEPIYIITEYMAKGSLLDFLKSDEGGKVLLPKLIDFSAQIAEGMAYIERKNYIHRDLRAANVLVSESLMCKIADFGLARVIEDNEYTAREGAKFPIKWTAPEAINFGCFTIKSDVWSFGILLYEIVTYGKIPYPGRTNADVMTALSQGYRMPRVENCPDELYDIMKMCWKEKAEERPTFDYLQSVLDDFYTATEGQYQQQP
T3 sequence (P04626 679-1255): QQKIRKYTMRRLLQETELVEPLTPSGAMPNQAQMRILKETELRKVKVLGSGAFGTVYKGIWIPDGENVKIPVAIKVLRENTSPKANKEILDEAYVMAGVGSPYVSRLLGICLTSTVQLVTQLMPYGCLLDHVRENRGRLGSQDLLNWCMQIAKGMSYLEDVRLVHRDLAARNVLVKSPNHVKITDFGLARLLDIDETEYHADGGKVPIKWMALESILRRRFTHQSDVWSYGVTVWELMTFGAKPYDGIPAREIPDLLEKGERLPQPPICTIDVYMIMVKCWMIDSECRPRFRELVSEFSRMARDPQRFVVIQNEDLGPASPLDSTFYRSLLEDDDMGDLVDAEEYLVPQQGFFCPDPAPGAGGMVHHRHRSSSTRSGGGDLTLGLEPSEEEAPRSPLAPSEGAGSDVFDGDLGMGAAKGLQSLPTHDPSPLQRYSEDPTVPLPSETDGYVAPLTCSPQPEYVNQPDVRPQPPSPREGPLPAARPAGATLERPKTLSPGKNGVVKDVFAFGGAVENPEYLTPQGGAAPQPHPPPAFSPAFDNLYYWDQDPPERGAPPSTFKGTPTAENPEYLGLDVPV

inhibition at 2 µM [1]: 86%
IC50 [2]: > 1000 nM
IC50 [3]: 1230 nM
SMILES: COC1CCN(Cc2ccc(NC(=O)c3sc4ncc(C#N)c5c4c3NC(=O)N5c3c(Cl)ccc4c3OCO4)cc2)CC1 [Cpd 18, 5-(5-chloro-benzo[1,3]dioxol-4-yl)-6-cyano-4-oxo-4,5-dihydro-3H-1-thia-3,5,8-triaza-acenaphthylene-2-carboxylic acid [4-(4-methoxy-piperidin-1-ylmethyl)-phenyl]-amide]

Reference: US7427625B2, “Substituted thiatriazaacenaphthylene-6-carbonitrile kinase inhibitors” (Janssen Pharmaceutica, N.V., priority 2006, dated 2008)
